Read-outs that look alike come from different tables or passages of the source.
Molecular target: T1, THP1 dual cell (Homo sapiens, UniProt Q8N697)
T1 construct: R848 (TLR7/8)-stimulated ISRE reporter
Test: THP1 DUAL/ISRE cell reporter assay (R848 stimulated)
Type: cell-based
Procedure: CAL-1, THP1 or human primary cells were incubated with dTASL1 and other identified compounds (or the corresponding volume of DMSO vehicle) for 24 h or 48 h at the indicated concentration and subsequently stimulated with R848 (5 μg/ml) for the indicated time. Supernatant or cells were recovered for ELISA, SDS-PAGE or microscopy-based analysis.
THP1 DUAL cells (1×10^5 cells per 96 well) were incubated with compounds for 24 h or 48 h, and subsequently stimulated for 20 h as indicated. Cell culture supernatant were collected, cleared of residual cells by centrifugation and analyzed for NF-κB and ISRE reporter activity according to the manufacturer's instructions. For experiments in 384-well format, compounds were pre-plated at defined concentrations and THP1 dual cells were added at 800 k/well concentration in […]. After incubation for 24 h or 48 h cells were stimulated with […] of a 25 μg/ml stock of R848 or 0.5 μg/ml Pam3CKS4 5× stocks as indicated for 20 h and detected by directly adding Quanti-Luc Plus (Invivogen) solution to the plates, according to the manufacturer's instructions and without adding stabilizer solution. Quanti-Blue detection was carried out according to the manifacturers instructions, with QB reagent and buffer (Invivogen) dissolved in 30 ml water, instead of the 100 ml used for standard detection.
Based on potency and kinetics, the compound C5 was selected for further characterization (FIG. 2E). C5 is an elongated molecule comprised of an aromatic 2-(4-ethoxyphenyl)-quinoline moiety followed by an amide bond and an aliphatic 2-methyl-1-propylpiperidine (FIG. 2F). To validate the scaffold and explore the chemical space at the aliphatic end of the compound, five analogues and an independently synthesized batch of C5 were obtained. […] Therefore the C5 compound was selected, which was named dTASL1 as its activity leads to TASL degradation, to assess effects on TLR7/8-induced signaling and responses.
The following compounds were assayed for their activity in the degradation assay (THP1 DUAL/ISRE cell reporter assay), as described herein: […]

[1] = 24 h treatment before R848 stimulation, read-out: IC50 24 h
[2] = 48 h treatment before R848 stimulation, read-out: IC50 48 h

T1 sequence (Q8N697 whole entry): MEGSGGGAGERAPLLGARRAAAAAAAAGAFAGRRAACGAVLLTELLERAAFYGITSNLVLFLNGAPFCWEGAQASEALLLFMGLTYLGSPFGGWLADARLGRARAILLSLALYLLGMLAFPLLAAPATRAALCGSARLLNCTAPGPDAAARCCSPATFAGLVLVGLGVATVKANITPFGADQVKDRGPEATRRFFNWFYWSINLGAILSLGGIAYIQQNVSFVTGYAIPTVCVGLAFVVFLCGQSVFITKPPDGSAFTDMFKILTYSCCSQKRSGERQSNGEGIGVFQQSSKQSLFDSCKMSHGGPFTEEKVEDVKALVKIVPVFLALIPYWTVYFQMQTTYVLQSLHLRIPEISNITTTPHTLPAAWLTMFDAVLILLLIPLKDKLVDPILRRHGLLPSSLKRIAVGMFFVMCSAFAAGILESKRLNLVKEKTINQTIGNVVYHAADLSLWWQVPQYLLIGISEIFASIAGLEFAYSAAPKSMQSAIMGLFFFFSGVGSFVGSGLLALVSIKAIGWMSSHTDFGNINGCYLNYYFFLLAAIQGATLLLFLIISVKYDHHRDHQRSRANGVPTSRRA

Compound | IC50 [1] [µM] | IC50 [2] [µM]
CCOc1ccc(-c2cc(C(=O)NCCCN3CCCCCC3)c3ccccc3n2)cc1 [dTASL1-a2] | 3.49 | 2.96
CCOc1ccc(-c2cc(C(=O)NCCCN3CCCCC3)c3ccccc3n2)cc1 [dTASL1-a4] | 4.16 | 2.39

— US20260364088A1, “TASL MIMICKING MOLECULES AND APPLICATIONS THEREOF” (CEMM - FORSCHUNGSZENTRUM FÜR MOLEKULARE MEDIZIN GMBH, priority 2022, published 2026)
